Measurements published in patent US20250277186A1, “COMPOUND MICROBIAL INOCULUM WITH BACTERIOSTATIC EFFECT AND USE THEREOF IN PREPARATION OF YOGURT” (priority 2023, published 2025).

What was measured:
[1] = system: Lactiplantibacillus plantarum FMBL L23036 CNN; experiment: Antibiotic sensitivity, drug-sensitive paper; for Antibiotic sensitivity of Lactiplantibacillus plantarum FMBL L23036 CNN: key: R: resistant; I: intermediately sensitive; S: sensitive; format: cell-based; settings: for Antibiotic sensitivity of Lactiplantibacillus plantarum FMBL L23036 CNN: drug-sensitive paper (content per Table 3), MRS solid medium, anaerobic 37° C. 24 h; for Resistant / sensitive, Lactiplantibacillus plantarum FMBL L23036 CNN: text statement for the two strains
Protocol: (§1) After two strains were cultured anaerobically at 37° C. at a 2% inoculation rate for 24 h, 100 μL (about 1×10^7 cfu/mL) of a bacteria solution of each strain was coated on the surface of an MRS solid medium, and then drug-sensitive paper (purchased from Oxoid Company, UK) was lightly pressed tightly in the middle of each of the mediums; and after anaerobic culture was carried out at 37° C. for 24 h, the bacteriostatic condition of the drug-sensitive paper was observed, and the diameter of the inhibition zone was measured.

[2] = system: Lacticaseibacillus rhamnosus FMBL L23004 CNN; experiment: Antibiotic sensitivity, drug-sensitive paper; for Antibiotic sensitivity of Lacticaseibacillus rhamnosus FMBL L23004 CNN: key: R: resistant; I: intermediately sensitive; S: sensitive; format: cell-based; settings: for Antibiotic sensitivity of Lacticaseibacillus rhamnosus FMBL L23004 CNN: drug-sensitive paper (content per Table 3), MRS solid medium, anaerobic 37° C. 24 h; for Resistant / sensitive, Lacticaseibacillus rhamnosus FMBL L23004 CNN: text statement for the two strains
Protocol: as §1

Q: `NCC[C@H](O)C(=O)N[C@@H]1C[C@H](N)[C@@H](O[C@H]2O[C@H](CN)[C@@H](O)[C@H](O)[C@H]2O)[C@H](O)[C@H]1O[C@H]1O[C@H](CO)[C@@H](O)[C@H](N)[C@H]1O` [Amikacin] was tested. Which “Antibiotic sensitivity of Lactiplantibacillus plantarum FMBL L23036 CNN” value [1] did it give?
A: Its value is “R”.

Q: And the “Resistant / sensitive, Lactiplantibacillus plantarum FMBL L23036 CNN” value [1]?
A: Its value is “resistant”.

Q: And the “Antibiotic sensitivity of Lacticaseibacillus rhamnosus FMBL L23004 CNN” value [2]?
A: The value was “R”.

Q: What about the “Resistant / sensitive, Lacticaseibacillus rhamnosus FMBL L23004 CNN” value [2] of the same compound?
A: The value was “resistant”.

Q: Which results are given for `CC1(C)S[C@@H]2[C@H](NC(=O)[C@H](N)c3ccc(O)cc3)C(=O)N2[C@H]1C(=O)O` [Amoxicillin]?
A: Antibiotic sensitivity of Lactiplantibacillus plantarum FMBL L23036 CNN [1]: S; Resistant / sensitive, Lactiplantibacillus plantarum FMBL L23036 CNN [1]: sensitive; Antibiotic sensitivity of Lacticaseibacillus rhamnosus FMBL L23004 CNN [2]: S; Resistant / sensitive, Lacticaseibacillus rhamnosus FMBL L23004 CNN [2]: sensitive

Q: Which “Antibiotic sensitivity of Lactiplantibacillus plantarum FMBL L23036 CNN” value [1] does the source give for `CC1(C)S[C@@H]2[C@H](NC(=O)[C@H](N)c3ccccc3)C(=O)N2[C@H]1C(=O)O` [Ampicillin] here?
A: The value was “S”.

Q: What about the “Resistant / sensitive, Lactiplantibacillus plantarum FMBL L23036 CNN” value [1] of the same compound?
A: Its value is “sensitive”.

Q: What about the “Antibiotic sensitivity of Lacticaseibacillus rhamnosus FMBL L23004 CNN” value [2] of the same compound?
A: The value was “S”.

Q: And the “Resistant / sensitive, Lacticaseibacillus rhamnosus FMBL L23004 CNN” value [2]?
A: The value was “sensitive”.

Q: For `O=C(Cc1cccs1)N[C@@H]1C(=O)N2C(C(=O)[O-])=C(C[n+]3ccccc3)CS[C@H]12` [Cephaloridine], which “Antibiotic sensitivity of Lactiplantibacillus plantarum FMBL L23036 CNN” value [1] is on record?
A: The value was “S”.

Q: And the “Resistant / sensitive, Lactiplantibacillus plantarum FMBL L23036 CNN” value [1]?
A: Its value is “sensitive”.

Q: What about the “Antibiotic sensitivity of Lacticaseibacillus rhamnosus FMBL L23004 CNN” value [2] of the same compound?
A: The value was “S”.

Q: And the “Resistant / sensitive, Lacticaseibacillus rhamnosus FMBL L23004 CNN” value [2]?
A: Its value is “sensitive”.

Q: What does the source list for `O=C(N[C@H](CO)[C@H](O)c1ccc([N+](=O)[O-])cc1)C(Cl)Cl` [Chloramphenicol]?
A: Antibiotic sensitivity of Lactiplantibacillus plantarum FMBL L23036 CNN [1]: S; Resistant / sensitive, Lactiplantibacillus plantarum FMBL L23036 CNN [1]: sensitive; Antibiotic sensitivity of Lacticaseibacillus rhamnosus FMBL L23004 CNN [2]: S; Resistant / sensitive, Lacticaseibacillus rhamnosus FMBL L23004 CNN [2]: sensitive

Q: With `O=C(O)c1cn(C2CC2)c2cc(N3CCNCC3)c(F)cc2c1=O` [Ciprofloxacin] as the compound, how does the “Antibiotic sensitivity of Lactiplantibacillus plantarum FMBL L23036 CNN” value [1] read?
A: Its value is “R”.

Q: And the “Resistant / sensitive, Lactiplantibacillus plantarum FMBL L23036 CNN” value [1]?
A: Its value is “resistant”.

Q: And the “Antibiotic sensitivity of Lacticaseibacillus rhamnosus FMBL L23004 CNN” value [2]?
A: The value was “R”.

Q: And the “Resistant / sensitive, Lacticaseibacillus rhamnosus FMBL L23004 CNN” value [2]?
A: The value was “resistant”.

Q: What does the source list for `CCC[C@@H]1C[C@@H](C(=O)N[C@@H]([C@H]2O[C@H](SC)[C@H](O)[C@@H](O)[C@H]2O)[C@H](C)Cl)N(C)C1` [Clindamycin]?
A: Antibiotic sensitivity of Lactiplantibacillus plantarum FMBL L23036 CNN [1]: S; Antibiotic sensitivity of Lacticaseibacillus rhamnosus FMBL L23004 CNN [2]: S

Q: What does the source list for `CC[C@H]1OC(=O)[C@H](C)[C@@H](O[C@H]2C[C@@](C)(OC)[C@@H](O)[C@H](C)O2)[C@H](C)[C@@H](O[C@@H]2O[C@H](C)C[C@H](N(C)C)[C@H]2O)[C@](C)(O)C[C@@H](C)C(=O)[C@H](C)[C@@H](O)[C@]1(C)O` [Erythromycin]?
A: Antibiotic sensitivity of Lactiplantibacillus plantarum FMBL L23036 CNN [1]: I; Antibiotic sensitivity of Lacticaseibacillus rhamnosus FMBL L23004 CNN [2]: S

Q: Which results are given for `NC[C@H]1O[C@H](O[C@H]2[C@H](O)[C@@H](O[C@H]3O[C@H](CO)[C@@H](O)[C@H](N)[C@H]3O)[C@H](N)C[C@@H]2N)[C@H](O)[C@@H](O)[C@@H]1O` [Kanamycin]?
A: Antibiotic sensitivity of Lactiplantibacillus plantarum FMBL L23036 CNN [1]: R; Antibiotic sensitivity of Lacticaseibacillus rhamnosus FMBL L23004 CNN [2]: R

Q: How did the “Antibiotic sensitivity of Lactiplantibacillus plantarum FMBL L23036 CNN” value [1] turn out when `CN(C)c1ccc(O)c2c1C[C@H]1C[C@H]3[C@H](N(C)C)C(O)=C(C(N)=O)C(=O)[C@@]3(O)C(O)=C1C2=O` [Minocycline] was run?
A: The value was “S”.

Q: And the “Antibiotic sensitivity of Lacticaseibacillus rhamnosus FMBL L23004 CNN” value [2]?
A: Its value is “S”.

Q: Which “Antibiotic sensitivity of Lactiplantibacillus plantarum FMBL L23036 CNN” value [1] does the source give for `CCn1cc(C(=O)O)c(=O)c2cc(F)c(N3CCNCC3)cc21` [Norfloxacin] here?
A: The value was “R”.

Q: What about the “Resistant / sensitive, Lactiplantibacillus plantarum FMBL L23036 CNN” value [1] of the same compound?
A: Its value is “resistant”.

Q: What about the “Antibiotic sensitivity of Lacticaseibacillus rhamnosus FMBL L23004 CNN” value [2] of the same compound?
A: The value was “R”.

Q: And the “Resistant / sensitive, Lacticaseibacillus rhamnosus FMBL L23004 CNN” value [2]?
A: The value was “resistant”.

Q: For `Cc1onc(-c2ccccc2)c1C(=O)N[C@@H]1C(=O)N2[C@@H]1SC(C)(C)[C@@H]2C(=O)O` [Oxacillin], which “Antibiotic sensitivity of Lactiplantibacillus plantarum FMBL L23036 CNN” value [1] is on record?
A: Its value is “R”.

Q: What about the “Antibiotic sensitivity of Lacticaseibacillus rhamnosus FMBL L23004 CNN” value [2] of the same compound?
A: Its value is “I”.

Q: With `CO[C@H]1/C=C/O[C@@]2(C)Oc3c(C)c(O)c4c(O)c(c(/C=N/N5CCN(C)CC5)c(O)c4c3C2=O)NC(=O)/C(C)=C\C=C\[C@H](C)[C@H](O)[C@@H](C)[C@@H](O)[C@@H](C)[C@H](OC(C)=O)[C@@H]1C` [Rifampicin] as the compound, how does the “Antibiotic sensitivity of Lactiplantibacillus plantarum FMBL L23036 CNN” value [1] read?
A: The value was “S”.

Q: And the “Antibiotic sensitivity of Lacticaseibacillus rhamnosus FMBL L23004 CNN” value [2]?
A: Its value is “S”.

Q: For `[H]/N=C(/N)N[C@H]1[C@H](O)[C@@H](O)[C@H](O[C@@H]2O[C@@H](C)[C@](O)(C=O)[C@H]2O[C@@H]2O[C@@H](CO)[C@H](O)[C@@H](O)[C@@H]2NC)[C@@H](N/C(N)=N\[H])[C@@H]1O` [Streptomycin], which “Antibiotic sensitivity of Lactiplantibacillus plantarum FMBL L23036 CNN” value [1] is on record?
A: Its value is “R”.

Q: What about the “Antibiotic sensitivity of Lacticaseibacillus rhamnosus FMBL L23004 CNN” value [2] of the same compound?
A: Its value is “I”.

Q: With `CN(C)[C@@H]1C(O)=C(C(N)=O)C(=O)[C@@]2(O)C(O)=C3C(=O)c4c(O)cccc4[C@@](C)(O)[C@H]3C[C@@H]12` [Tetracycline] as the compound, how does the “Antibiotic sensitivity of Lactiplantibacillus plantarum FMBL L23036 CNN” value [1] read?
A: The value was “S”.

Q: What about the “Antibiotic sensitivity of Lacticaseibacillus rhamnosus FMBL L23004 CNN” value [2] of the same compound?
A: The value was “S”.

Q: `CN[C@H](CC(C)C)C(=O)N[C@H]1C(=O)N[C@@H](CC(N)=O)C(=O)N[C@H]2C(=O)N[C@H]3C(=O)N[C@H](C(=O)N[C@H](C(=O)O)c4cc(O)cc(O)c4-c4cc3ccc4O)[C@H](O)c3ccc(c(Cl)c3)Oc3cc2cc(c3O[C@@H]2O[C@H](CO)[C@@H](O)[C@H](O)[C@H]2O[C@H]2C[C@](C)(N)[C@H](O)[C@H](C)O2)Oc2ccc(cc2Cl)[C@H]1O` [Vancomycin] was tested. Which “Antibiotic sensitivity of Lactiplantibacillus plantarum FMBL L23036 CNN” value [1] did it give?
A: The value was “R”.

Q: And the “Resistant / sensitive, Lactiplantibacillus plantarum FMBL L23036 CNN” value [1]?
A: Its value is “resistant”.

Q: And the “Antibiotic sensitivity of Lacticaseibacillus rhamnosus FMBL L23004 CNN” value [2]?
A: The value was “R”.

Q: What about the “Resistant / sensitive, Lacticaseibacillus rhamnosus FMBL L23004 CNN” value [2] of the same compound?
A: The value was “resistant”.

Q: What does the source list for Gentamicin?
A: Antibiotic sensitivity of Lactiplantibacillus plantarum FMBL L23036 CNN [1]: R; Resistant / sensitive, Lactiplantibacillus plantarum FMBL L23036 CNN [1]: resistant; Antibiotic sensitivity of Lacticaseibacillus rhamnosus FMBL L23004 CNN [2]: R; Resistant / sensitive, Lacticaseibacillus rhamnosus FMBL L23004 CNN [2]: resistant

Q: With Penicillin as the compound, how does the “Antibiotic sensitivity of Lactiplantibacillus plantarum FMBL L23036 CNN” value [1] read?
A: The value was “S”.

Q: What about the “Resistant / sensitive, Lactiplantibacillus plantarum FMBL L23036 CNN” value [1] of the same compound?
A: Its value is “sensitive”.

Q: And the “Antibiotic sensitivity of Lacticaseibacillus rhamnosus FMBL L23004 CNN” value [2]?
A: Its value is “S”.

Q: And the “Resistant / sensitive, Lacticaseibacillus rhamnosus FMBL L23004 CNN” value [2]?
A: The value was “sensitive”.

Q: What does the source list for Polymyxin?
A: Antibiotic sensitivity of Lactiplantibacillus plantarum FMBL L23036 CNN [1]: R; Resistant / sensitive, Lactiplantibacillus plantarum FMBL L23036 CNN [1]: resistant; Antibiotic sensitivity of Lacticaseibacillus rhamnosus FMBL L23004 CNN [2]: R; Resistant / sensitive, Lacticaseibacillus rhamnosus FMBL L23004 CNN [2]: resistant

Q: Which results are given for Teicoplanin?
A: Antibiotic sensitivity of Lactiplantibacillus plantarum FMBL L23036 CNN [1]: R; Resistant / sensitive, Lactiplantibacillus plantarum FMBL L23036 CNN [1]: resistant; Antibiotic sensitivity of Lacticaseibacillus rhamnosus FMBL L23004 CNN [2]: R; Resistant / sensitive, Lacticaseibacillus rhamnosus FMBL L23004 CNN [2]: resistant
